# ChEMBL document CHEMBL5236593, “Design, synthesis and biological evaluation studies of novel anti-fibrosis agents bearing sulfoxide moiety” (2022)
# Activity calls are given as the source filed them. No cut-off for these calls is given here.
# Experiments:
# HRMC [1] = assay: Anti-fibrotic activity in human HRMC cells assessed as downregulation of COL16A1 mRNA expression at 1 uM pretreated with compound for 30 mins followed by TGF-beta stimulation and measured after 24 hrs by qRT-PCR analysis; assay type: functional, cell-based; settings: time 24.5 hrs
# HRMC [2] = assay: Anti-fibrotic activity in human HRMC cells assessed as downregulation of COL4A1 mRNA expression at 1 uM pretreated with compound for 30 mins followed by TGF-beta stimulation and measured after 24 hrs by qRT-PCR analysis; assay type: functional, cell-based; settings: time 24.5 hrs
# HRMC [3] = assay: Anti-fibrotic activity in human HRMC cells assessed as downregulation of CTGF mRNA expression at 1 uM pretreated with compound for 30 mins followed by TGF-beta stimulation and measured after 24 hrs by qRT-PCR analysis; assay type: functional, cell-based; settings: time 24.5 hrs
# HRMC [4] = assay: Anti-fibrotic activity in human HRMC cells assessed as downregulation of IL11 mRNA expression at 1 uM pretreated with compound for 30 mins followed by TGF-beta stimulation and measured after 24 hrs by qRT-PCR analysis; assay type: functional, cell-based; settings: time 24.5 hrs
# LX-2 [5] = assay: Anti-fibrotic activity in human LX2 cells assessed as downregulation of ACTA2 mRNA expression at 1 uM pretreated with compound for 30 mins followed by TGF-beta stimulation and measured after 24 hrs by qRT-PCR analysis; assay type: functional, cell-based; settings: time 24.5 hrs
# LX-2 [6] = assay: Anti-fibrotic activity in human LX2 cells assessed as downregulation of COL1A1 mRNA expression at 1 uM pretreated with compound for 30 mins followed by TGF-beta stimulation and measured after 24 hrs by qRT-PCR analysis; assay type: functional, cell-based; settings: time 24.5 hrs
# LX-2 [7] = assay: Anti-fibrotic activity in human LX2 cells assessed as downregulation of CTGF mRNA expression at 1 uM pretreated with compound for 30 mins followed by TGF-beta stimulation and measured after 24 hrs by qRT-PCR analysis; assay type: functional, cell-based; settings: time 24.5 hrs
# LX-2 [8] = assay: Anti-fibrotic activity in human LX2 cells assessed as downregulation of PAI-1 mRNA expression at 1 uM pretreated with compound for 30 mins followed by TGF-beta stimulation and measured after 24 hrs by qRT-PCR analysis; assay type: functional, cell-based; settings: time 24.5 hrs
# NHCF-V [9] = assay: Anti-fibrotic activity in human NHCF-V cells assessed as downregulation of TGF-beta1 mRNA expression at 1 uM pretreated with compound for 30 mins followed by TGF-beta stimulation and measured after 24 hrs by qRT-PCR analysis; assay type: functional, cell-based; settings: time 24.5 hrs
# NHCF-V [10] = assay: Anti-fibrotic activity in human NHCF-V cells assessed as downregulation of ACTA2 mRNA expression at 1 uM pretreated with compound for 30 mins followed by TGF-beta stimulation and measured after 24 hrs by qRT-PCR analysis; assay type: functional, cell-based; settings: time 24.5 hrs
# NHCF-V [11] = assay: Anti-fibrotic activity in human NHCF-V cells assessed as downregulation of CTGF mRNA expression at 1 uM pretreated with compound for 30 mins followed by TGF-beta stimulation and measured after 24 hrs by qRT-PCR analysis; assay type: functional, cell-based; settings: time 24.5 hrs
# NHCF-V [12] = assay: Anti-fibrotic activity in human NHCF-V cells assessed as downregulation of PAI-1 mRNA expression at 1 uM pretreated with compound for 30 mins followed by TGF-beta stimulation and measured after 24 hrs by qRT-PCR analysis; assay type: functional, cell-based; settings: time 24.5 hrs
# Mus musculus [13] = assay: (§1) Anti-fibrotic activity against CCl4-induced liver fibrosis C57BL/6 mouse model assessed as reduction in liver bridging fibrosis at 200 mg/kg, ig administered for 27 days with first injection started at 24 hrs post-first CCl4 challenge and measured at 48 hrs post-last administration by Masson's trichrome staining based analysis; assay type: functional, organism-based; settings: time 29.0 day
# Mus musculus [14] = assay: Anti-fibrotic activity against CCl4-induced liver fibrosis C57BL/6 mouse model assessed as reduction in serum ALT level at 200 mg/kg, ig administered for 27 days with first injection started at 24 hrs post-first CCl4 challenge and measured at 48 hrs post-last administration; assay type: functional, organism-based; settings: time 29.0 day
# Mus musculus [15] = assay: Anti-fibrotic activity against CCl4-induced liver fibrosis C57BL/6 mouse model assessed as reduction in serum TBIL level at 200 mg/kg, ig administered for 27 days with first injection started at 24 hrs post-first CCl4 challenge and measured at 48 hrs post-last administration; assay type: functional, organism-based; settings: time 29.0 day
# Mus musculus [16] = assay: Anti-fibrotic activity against CCl4-induced liver fibrosis C57BL/6 mouse model assessed as reduction in serum IBIL level at 200 mg/kg, ig administered for 27 days with first injection started at 24 hrs post-first CCl4 challenge and measured at 48 hrs post-last administration; assay type: functional, organism-based; settings: time 29.0 day
# Mus musculus [17] = assay: (§2) Anti-fibrotic activity against BLM-induced pulmonary fibrosis C57BL/6 mouse model assessed as reduction in lung fibrosis at 200 mg/kg administered via gavage for 13 days with first injection started at 24 hrs post-first BLM challenge and measured after 24 hrs by Ashcroft score based analysis; assay type: functional, organism-based; settings: time 14.0 day
# LX-2 [18] = assay: Anti-fibrotic activity in human LX2 cells assessed as downregulation of ACTA2 mRNA expression at 0.1 to 1 uM pretreated with compound for 30 mins followed by TGF-beta stimulation and measured after 24 hrs by qRT-PCR analysis; assay type: functional, cell-based; settings: dose 0.1-1 µM, time 24.5 hrs
# LX-2 [19] = assay: Anti-fibrotic activity in human LX2 cells assessed as downregulation of CTGF mRNA expression at 0.1 to 1 uM pretreated with compound for 30 mins followed by TGF-beta stimulation and measured after 24 hrs by qRT-PCR analysis; assay type: functional, cell-based; settings: dose 0.1-1 µM, time 24.5 hrs
# [20] = Anti-fibrotic activity in human NHCF-V cells assessed as downregulation of CTGF mRNA expression at 0.1 to 1 uM pretreated with compound for 30 mins followed by TGF-beta stimulation and measured after 24 hrs by qRT-PCR analysis; assay type: functional; settings: dose 0.1-1 µM, time 24.5 hrs
# [21] = Anti-fibrotic activity in human NHCF-V cells assessed as downregulation of ACTA2 mRNA expression at 0.1 to 1 uM pretreated with compound for 30 mins followed by TGF-beta stimulation and measured after 24 hrs by qRT-PCR analysis; assay type: functional; settings: dose 0.1-1 µM, time 24.5 hrs
# [22] = Anti-fibrotic activity in human NHCF-V cells assessed as downregulation of PAI-1 mRNA expression at 0.1 to 1 uM pretreated with compound for 30 mins followed by TGF-beta stimulation and measured after 24 hrs by qRT-PCR analysis; assay type: functional; settings: dose 0.1-1 µM, time 24.5 hrs
# Mus musculus [23] = assay: Anti-fibrotic activity against CCl4-induced liver fibrosis C57BL/6 mouse model assessed as reduction in serum hydroxyproline content at 200 mg/kg, ig administered for 27 days with first injection started at 24 hrs post-first CCl4 challenge and measured at 48 hrs post-last administration; assay type: functional, organism-based; settings: time 29.0 day
# Mus musculus [24] = assay: as §2, with “lung inflammation” for “lung fibrosis”, “by H and E staining” for “by Ashcroft score”, “based microscopic” for “based”; assay type: functional, organism-based; settings: time 14.0 day
# Mus musculus [25] = assay: (§3) Anti-fibrotic activity against BLM-induced pulmonary fibrosis C57BL/6 mouse model assessed as reduction in area of lung fibrosis at 200 mg/kg administered via gavage for 13 days with first injection started at 24 hrs post-first BLM challenge and measured after 24 hrs by H and E staining based microscopic analysis; assay type: functional, organism-based; settings: time 14.0 day
# Mus musculus [26] = assay: as §2, with “lung inflammation” for “lung fibrosis”, “by Masson's trichrome staining” for “by Ashcroft score”; assay type: functional, organism-based; settings: time 14.0 day
# Mus musculus [27] = assay: as §3, with “Masson's trichrome” for “H and E”, “based” for “based microscopic”; assay type: functional, organism-based; settings: time 14.0 day
# Mus musculus [28] = assay: Anti-fibrotic activity against BLM-induced pulmonary fibrosis C57BL/6 mouse model assessed as reduction in hydroxyproline content in lungs at 200 mg/kg administered via gavage for 13 days with first injection started at 24 hrs post-first BLM challenge and measured after 24 hrs; assay type: functional, organism-based; settings: time 14.0 day
# Mus musculus [29] = assay: as §1, with “250” for “200”; assay type: functional, organism-based; settings: time 29.0 day
SMILES,Activity (HRMC [1]),Activity (HRMC [2]),Activity (HRMC [3]),Activity (HRMC [4]),Activity (LX-2 [5]),Activity (LX-2 [6]),Activity (LX-2 [7]),Activity (LX-2 [8]),Activity (NHCF-V [9]),Activity (NHCF-V [10]),Activity (NHCF-V [11]),Activity (NHCF-V [12]),other results
CC1(C[S+]([O-])c2ccccc2)COC1 (centres undefined),inactive,inactive,inactive,inactive,inactive,inactive,inactive,inactive,inactive,inactive,inactive,inactive,Activity (Mus musculus [13]): inactive; Activity (Mus musculus [14]): Active; Activity (Mus musculus [15]): Active; Activity (Mus musculus [16]): Active; Activity (Mus musculus [17]): Active
NC(=O)C[S+]([O-])Cc1ccccc1 (centres undefined),inactive,inactive,inactive,inactive,inactive,inactive,inactive,inactive,inactive,inactive,inactive,inactive,
NC(=O)C[S+]([O-])c1cccc(F)c1 (centres undefined),inactive,inactive,inactive,inactive,inactive,inactive,inactive,inactive,inactive,inactive,inactive,inactive,
CC1(C[S+]([O-])c2cccc(F)c2)COC1 (centres undefined),Active,,,,,,,,,,,,
CCC1(C[S+]([O-])c2cccc(F)c2)COC1 (centres undefined),,,,,,,,,,,,Active,
CC1(C[S+]([O-])Cc2ccccc2)COC1 (centres undefined),inactive,inactive,inactive,inactive,,,,,,,,,Activity (LX-2 [18]): Active; Activity (LX-2 [19]): Active; inhibition (INH) [20]: <30%; inhibition (INH) [21]: <30%; inhibition (INH) [22]: <30%; Activity (Mus musculus [13]): Active; Activity (Mus musculus [14]): Active; Activity (Mus musculus [15]): Active; Activity (Mus musculus [16]): Active; Activity (Mus musculus [23]): Active; Activity (Mus musculus [24]): Active; Activity (Mus musculus [25]): Active; Activity (Mus musculus [26]): Active; Activity (Mus musculus [27]): Active; Activity (Mus musculus [17]): Active; Activity (Mus musculus [28]): Active
Cc1ccc(=O)n(-c2ccccc2)c1,,,,,,,,,,,,,Activity (Mus musculus [29]): Active
